Test results published in ChEMBL document CHEMBL3616440, “Non-basic azolotriazinone MCHR1 antagonists for the treatment of obesity: An empirical brain-exposures-driven candidate selection for in vivo efficacy studies” (Bioorg Med Chem Lett, 2015).

Columns and labels:
Plasma [1] = assay: Plasma concentration in Sprague-Dawley rat assessed as ((R)-6-(5-chloropyridin-2-yl)-3-(4-(3-hydroxypyrrolidin-1-yl)-3-methoxyphenyl)pyrrolo[1,2-f][1,2,4]triazin-4(3H)-one level at 10 mg/kg, po qd at 8 hrs; format: ADME, organism-based; details: in vivo
Brain [2] = assay: Drug concentration in Sprague-Dawley rat brain assessed as ((R)-6-(5-chloropyridin-2-yl)-3-(4-(3-hydroxypyrrolidin-1-yl)-3-methoxyphenyl)pyrrolo[1,2-f][1,2,4]triazin-4(3H)-one level at 10 mg/kg, po qd at 8 hrs; format: ADME, organism-based; details: in vivo, read-out: Drug uptake
Nucleic Acid [3] = assay: Ratio of drug level in Sprague-Dawley rat brain to plasma assessed as ((R)-6-(5-chloropyridin-2-yl)-3-(4-(3-hydroxypyrrolidin-1-yl)-3-methoxyphenyl)pyrrolo[1,2-f][1,2,4]triazin-4(3H)-one level at 10 mg/kg, po qd; format: ADME, organism-based
Brain [4] = assay: Drug concentration in Sprague-Dawley rat brain assessed as 6-(5-chloropyridin-2-yl)-3-(4-((3,3-difluoro-1-hydroxycyclobutyl)methoxy)-3-methoxyphenyl)pyrrolo[1,2-f][1,2,4]triazin-4(3H)-one level at 3 mg/kg, po qd at 20 hrs; format: ADME, organism-based; details: in vivo, read-out: Drug uptake
Brain [5] = assay: Drug concentration in Sprague-Dawley rat brain assessed as 6-(5-chloropyridin-2-yl)-3-(4-((3,3-difluoro-1-hydroxycyclobutyl)methoxy)-3-methoxyphenyl)pyrrolo[1,2-f][1,2,4]triazin-4(3H)-one level at 10 mg/kg, po qd at 20 hrs; format: ADME, organism-based; details: in vivo, read-out: Drug uptake
Brain [6] = assay: Drug concentration in Sprague-Dawley rat brain assessed as 6-(5-chloropyridin-2-yl)-3-(4-((3,3-difluoro-1-hydroxycyclobutyl)methoxy)-3-methoxyphenyl)pyrrolo[1,2-f][1,2,4]triazin-4(3H)-one level at 30 mg/kg, po qd at 20 hrs; format: ADME, organism-based; details: in vivo, read-out: Drug uptake
Brain [7] = assay: Free drug level in Sprague-Dawley rat brain assessed as 6-(5-chloropyridin-2-yl)-3-(4-((3,3-difluoro-1-hydroxycyclobutyl)methoxy)-3-methoxyphenyl)pyrrolo[1,2-f][1,2,4]triazin-4(3H)-one level at 3 mg/kg, po qd at 20 hrs; format: ADME, organism-based; details: in vivo
Brain [8] = assay: Free drug level in Sprague-Dawley rat brain assessed as 6-(5-chloropyridin-2-yl)-3-(4-((3,3-difluoro-1-hydroxycyclobutyl)methoxy)-3-methoxyphenyl)pyrrolo[1,2-f][1,2,4]triazin-4(3H)-one level at 10 mg/kg, po qd at 20 hrs; format: ADME, organism-based; details: in vivo
Brain [9] = assay: Free drug level in Sprague-Dawley rat brain assessed as 6-(5-chloropyridin-2-yl)-3-(4-((3,3-difluoro-1-hydroxycyclobutyl)methoxy)-3-methoxyphenyl)pyrrolo[1,2-f][1,2,4]triazin-4(3H)-one level at 30 mg/kg, po qd at 20 hrs; format: ADME, organism-based; details: in vivo
Rattus norvegicus [10] = assay: Antiobesity activity in Sprague-Dawley rat assessed as body weight reduction at 3 mg/kg, po qd after 4 days relative to control; format: functional; details: 96 h
Rattus norvegicus [11] = assay: Antiobesity activity in Sprague-Dawley rat assessed as body weight reduction at 10 mg/kg, po qd after 4 days relative to control; format: functional; details: 96 h
Rattus norvegicus [12] = assay: Antiobesity activity in Sprague-Dawley rat assessed as body weight reduction at 30 mg/kg, po qd after 4 days relative to control; format: functional; details: 96 h
[13] = Ratio of free drug level in brain of Sprague-Dawley rat assessed as 6-(5-chloropyridin-2-yl)-3-(4-((3,3-difluoro-1-hydroxycyclobutyl)methoxy)-3-methoxyphenyl)pyrrolo[1,2-f][1,2,4]triazin-4(3H)-one level at 3 mg/kg, po to Ki for rat MCHR1; format: ADME, organism-based; details: in vivo
[14] = Ratio of free drug level in brain of Sprague-Dawley rat assessed as 6-(5-chloropyridin-2-yl)-3-(4-((3,3-difluoro-1-hydroxycyclobutyl)methoxy)-3-methoxyphenyl)pyrrolo[1,2-f][1,2,4]triazin-4(3H)-one level at 10 mg/kg, po to Ki for rat MCHR1; format: ADME, organism-based; details: in vivo
[15] = Ratio of free drug level in brain of Sprague-Dawley rat assessed as 6-(5-chloropyridin-2-yl)-3-(4-((3,3-difluoro-1-hydroxycyclobutyl)methoxy)-3-methoxyphenyl)pyrrolo[1,2-f][1,2,4]triazin-4(3H)-one level at 30 mg/kg, po to Ki for rat MCHR1; format: ADME, organism-based; details: in vivo
Plasma [16] = assay: Plasma concentration in Sprague-Dawley rat assessed as 6-(5-chloropyridin-2-yl)-3-(4-((3,3-difluoro-1-hydroxycyclobutyl)methoxy)-3-methoxyphenyl)pyrrolo[1,2-f][1,2,4]triazin-4(3H)-one level at 10 mg/kg, po qd at 8 hrs; format: ADME, organism-based; details: in vivo
Brain [17] = assay: Drug concentration in Sprague-Dawley rat brain assessed as 6-(5-chloropyridin-2-yl)-3-(4-((3,3-difluoro-1-hydroxycyclobutyl)methoxy)-3-methoxyphenyl)pyrrolo[1,2-f][1,2,4]triazin-4(3H)-one level at 10 mg/kg, po qd at 8 hrs; format: ADME, organism-based; details: in vivo, read-out: Drug uptake
Nucleic Acid [18] = assay: Ratio of drug level in Sprague-Dawley rat brain to plasma assessed as 6-(5-chloropyridin-2-yl)-3-(4-((3,3-difluoro-1-hydroxycyclobutyl)methoxy)-3-methoxyphenyl)pyrrolo[1,2-f][1,2,4]triazin-4(3H)-one level at 10 mg/kg, po qd; format: ADME, organism-based
Plasma [19] = assay: Fraction unbound in Sprague-Dawley rat plasma assessed as 6-(5-chloropyridin-2-yl)-3-(4-((3,3-difluoro-1-hydroxycyclobutyl)methoxy)-3-methoxyphenyl)pyrrolo[1,2-f][1,2,4]triazin-4(3H)-one level; format: ADME, cell-free
Plasma [20] = assay: Plasma concentration in Sprague-Dawley rat assessed as 6-(5-chloropyrimidin-2-yl)-3-(4-(2-hydroxy-2-methylpropoxy)-3-methoxyphenyl)pyrrolo[1,2-f][1,2,4]triazin-4(3H)-one level at 5 mg/kg, po qd at 8 hrs; format: ADME, organism-based; details: in vivo
Brain [21] = assay: Drug concentration in Sprague-Dawley rat brain assessed as 6-(5-chloropyrimidin-2-yl)-3-(4-(2-hydroxy-2-methylpropoxy)-3-methoxyphenyl)pyrrolo[1,2-f][1,2,4]triazin-4(3H)-one level at 5 mg/kg, po qd at 8 hrs; format: ADME, organism-based; details: in vivo, read-out: Drug uptake
Nucleic Acid [22] = assay: Ratio of drug level in Sprague-Dawley rat brain to plasma assessed as 6-(5-chloropyrimidin-2-yl)-3-(4-(2-hydroxy-2-methylpropoxy)-3-methoxyphenyl)pyrrolo[1,2-f][1,2,4]triazin-4(3H)-one level at 5 mg/kg, po qd; format: ADME, organism-based
Plasma [23] = assay: Plasma concentration in Sprague-Dawley rat assessed as (S)-6-(5-chloropyrimidin-2-yl)-3-(4-(3-(ethylsulfonyl)-2-hydroxypropoxy)-3-methoxyphenyl)pyrrolo[1,2-f][1,2,4]triazin-4(3H)-one level at 10 mg/kg, po qd at 8 hrs; format: ADME, organism-based; details: in vivo
Brain [24] = assay: Drug concentration in Sprague-Dawley rat brain assessed as (S)-6-(5-chloropyrimidin-2-yl)-3-(4-(3-(ethylsulfonyl)-2-hydroxypropoxy)-3-methoxyphenyl)pyrrolo[1,2-f][1,2,4]triazin-4(3H)-one level at 10 mg/kg, po qd at 8 hrs; format: ADME, organism-based; details: in vivo, read-out: Drug uptake
Nucleic Acid [25] = assay: Ratio of drug level in Sprague-Dawley rat brain to plasma assessed as (S)-6-(5-chloropyrimidin-2-yl)-3-(4-(3-(ethylsulfonyl)-2-hydroxypropoxy)-3-methoxyphenyl)pyrrolo[1,2-f][1,2,4]triazin-4(3H)-one level at 10 mg/kg, po qd; format: ADME, organism-based

Structure (SMILES): COc1cc(-n2cnn3cc(-c4ccc(Cl)cn4)cc3c2=O)ccc1N1CC[C@@H](OC(=O)[C@@H](N)C(C)C)C1
- concentration (Plasma [1]): 4.59 µM
- concentration (Brain [2]): 0.664 µM
- BPR (Nucleic Acid [3]): 0.1

Structure (SMILES): COc1cc(-n2cnn3cc(-c4ccc(Cl)cn4)cc3c2=O)ccc1OCC1(OC(=O)CN)CC(F)(F)C1
- concentration (Brain [4]): 3.87 µM
- concentration (Brain [5]): 16 µM
- concentration (Brain [6]): 23.9 µM
- Drug uptake(free) (Brain [7]): 63.9 nM
- Drug uptake(free) (Brain [8]): 616 nM
- Drug uptake(free) (Brain [9]): 624 nM
- inhibition in vivo at 3 mg/kg (Rattus norvegicus [10]): 1.6%
- inhibition in vivo at 10 mg/kg (Rattus norvegicus [11]): 4.4%
- inhibition in vivo at 30 mg/kg (Rattus norvegicus [12]): 13%
- Ratio [13]: <= 0.6
- Ratio [14]: <= 2.5
- Ratio [15]: <= 3.7
- concentration (Plasma [16]): 5.59 µM
- concentration (Brain [17]): 3.59 µM
- BPR (Nucleic Acid [18]): 0.6
- Fu (Plasma [19]): <= 0.1%

Structure (SMILES): COc1cc(-n2cnn3cc(-c4ncc(Cl)cn4)cc3c2=O)ccc1OCC(C)(C)OC(=O)CN
- concentration (Plasma [20]): 2.71 µM
- concentration (Brain [21]): 1.43 µM
- BPR (Nucleic Acid [22]): 0.5

Structure (SMILES): CCS(=O)(=O)C[C@H](COc1ccc(-n2cnn3cc(-c4ncc(Cl)cn4)cc3c2=O)cc1OC)OC(=O)CN
- concentration (Plasma [23]): 3.96 µM
- concentration (Brain [24]): 0.125 µM
- BPR (Nucleic Acid [25]): 0.03
